Data as given in US20100009014A1, “Use of composition for manufacture of medicant and method for inhibiting formation of body fat” (Maxluck Biotechnology Corp., priority 2008, published 2010).

Experiment: Epididymal fat weight and body weight, lactoferrin vs trivalent chromium vs combination (Test Example 5)
Type: in vivo, C57BL/6JNarl mice
Conditions: fed 7 weeks; for Body weight / Epididymal fat weight: high-fat diet
Description: The C57BL/6JNarl mice (N=70) are fed with a mouse diet (high-fat Rodent TestDiet, PMI Nutrition International Inc., MO, U.S.A.; 67% of calories provided by fat). The C57BL/6JNarl mice are randomly divided into seven groups and there are ten mice in each group. In one experimental group, the mice are fed with the mouse diet mixed with lactoferrin (NZMP lactoferrin, New Zealand, low dose: 40 mg/kg BW/day, high dose: 80 mg/kg BW/day). In another experimental group, the mice are fed with the mouse diet mixed with trivalent chromium (chromium (III) chloride hexahydrate, low dose: 40 μg/kg BW/day Cr^3+, high dose: 80 μg/kg BW/day Cr^3+). In yet another experimental group, the mice are fed with the mouse diet mixed with a lactoferrin/trivalent chromium composition (low dose: lactoferrin of 40 mg/kg BW/day with Cr^3+ of 40 μg/kg BW/day, high dose: lactoferrin of 80 mg/kg BW/day with Cr^3+ of 80 μg/kg BW/day). In the control group, the mice are fed with the mouse diet containing no other additive. The C57BL/6JNarl mice aged 8 weeks are fed for 7 weeks and then sacrificed to measure the weight of Epididymal fat and body weight, as shown in Table 5.
Accordingly, it can be known that the lactoferrin/trivalent chromium composition provides more significant efficiency in comparison to single lactoferrin or trivalent chromium.

[1] = High dose (lactoferrin 80 mg/kg BW/day and/or Cr3+ 80 μg/kg BW/day)
[2] = Low dose (lactoferrin 40 mg/kg BW/day and/or Cr3+ 40 μg/kg BW/day)

Structure (SMILES): O.O.O.O.O.O.[Cl][Cr]([Cl])[Cl] [Trivalent Chromium, chromium (III) chloride hexahydrate]
- Body weight [1]: 27.7 ± 1.35 g
- Epididymal fat weight [1]: 0.82 ± 0.2 g
- Body weight [2]: 27.8 ± 1.33 g
- Epididymal fat weight [2]: 0.78 ± 0.16 g
- Epididymal fat weight and body weight vs control group (in words): cannot achieve significant efficiency
